We go through 32 compounds from patent publication US20220162192A1 (ESCAPE Bio, Inc., priority 2019, published 2022).

For test [1], the target named is T1, Recombinant wild type LRRK2 protein (Homo sapiens, UniProt Q5S007).
T1 construct: purchased Life Technologies PR8604B
Nature of the test: LanthaScreen Kinase Activity Assay (TR-FRET), wild type LRRK2. The note with it: 25 μM ATP, 400 nM LRRKtide, 2.9 nM kinase, 60 min at room temperature, read-out: LRRK2 WT IC50. The class given is biochemical. The procedure, abridged: (§1)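 Recombinant wild-type or G2019S LRRK2 (2.9 nM final) phosphorylated fluorescein-LRRKtide (400 nM) with 25 μM ATP in 50 mM Tris pH 8.5, 5 mM MgCl2, 1 mM EGTA, 0.01% Brij-35, 2 mM DTT for 60 min at RT. After EDTA stop, Tb-anti-pERM TR-FRET (520/495 nm ratio) was read. IC50 values came from 11-point, 3-fold compound dilutions.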
For orientation: Time-resolved FRET reads energy transfer from a long-lived donor to a nearby acceptor.

The target of test [2] is T2, Recombinant G2019S-LRRK2 protein (Homo sapiens, UniProt Q5S007, G2019S).
T2 construct: purchased Life Technologies PV4881
T2 sequence (Q5S007 whole entry G2019S): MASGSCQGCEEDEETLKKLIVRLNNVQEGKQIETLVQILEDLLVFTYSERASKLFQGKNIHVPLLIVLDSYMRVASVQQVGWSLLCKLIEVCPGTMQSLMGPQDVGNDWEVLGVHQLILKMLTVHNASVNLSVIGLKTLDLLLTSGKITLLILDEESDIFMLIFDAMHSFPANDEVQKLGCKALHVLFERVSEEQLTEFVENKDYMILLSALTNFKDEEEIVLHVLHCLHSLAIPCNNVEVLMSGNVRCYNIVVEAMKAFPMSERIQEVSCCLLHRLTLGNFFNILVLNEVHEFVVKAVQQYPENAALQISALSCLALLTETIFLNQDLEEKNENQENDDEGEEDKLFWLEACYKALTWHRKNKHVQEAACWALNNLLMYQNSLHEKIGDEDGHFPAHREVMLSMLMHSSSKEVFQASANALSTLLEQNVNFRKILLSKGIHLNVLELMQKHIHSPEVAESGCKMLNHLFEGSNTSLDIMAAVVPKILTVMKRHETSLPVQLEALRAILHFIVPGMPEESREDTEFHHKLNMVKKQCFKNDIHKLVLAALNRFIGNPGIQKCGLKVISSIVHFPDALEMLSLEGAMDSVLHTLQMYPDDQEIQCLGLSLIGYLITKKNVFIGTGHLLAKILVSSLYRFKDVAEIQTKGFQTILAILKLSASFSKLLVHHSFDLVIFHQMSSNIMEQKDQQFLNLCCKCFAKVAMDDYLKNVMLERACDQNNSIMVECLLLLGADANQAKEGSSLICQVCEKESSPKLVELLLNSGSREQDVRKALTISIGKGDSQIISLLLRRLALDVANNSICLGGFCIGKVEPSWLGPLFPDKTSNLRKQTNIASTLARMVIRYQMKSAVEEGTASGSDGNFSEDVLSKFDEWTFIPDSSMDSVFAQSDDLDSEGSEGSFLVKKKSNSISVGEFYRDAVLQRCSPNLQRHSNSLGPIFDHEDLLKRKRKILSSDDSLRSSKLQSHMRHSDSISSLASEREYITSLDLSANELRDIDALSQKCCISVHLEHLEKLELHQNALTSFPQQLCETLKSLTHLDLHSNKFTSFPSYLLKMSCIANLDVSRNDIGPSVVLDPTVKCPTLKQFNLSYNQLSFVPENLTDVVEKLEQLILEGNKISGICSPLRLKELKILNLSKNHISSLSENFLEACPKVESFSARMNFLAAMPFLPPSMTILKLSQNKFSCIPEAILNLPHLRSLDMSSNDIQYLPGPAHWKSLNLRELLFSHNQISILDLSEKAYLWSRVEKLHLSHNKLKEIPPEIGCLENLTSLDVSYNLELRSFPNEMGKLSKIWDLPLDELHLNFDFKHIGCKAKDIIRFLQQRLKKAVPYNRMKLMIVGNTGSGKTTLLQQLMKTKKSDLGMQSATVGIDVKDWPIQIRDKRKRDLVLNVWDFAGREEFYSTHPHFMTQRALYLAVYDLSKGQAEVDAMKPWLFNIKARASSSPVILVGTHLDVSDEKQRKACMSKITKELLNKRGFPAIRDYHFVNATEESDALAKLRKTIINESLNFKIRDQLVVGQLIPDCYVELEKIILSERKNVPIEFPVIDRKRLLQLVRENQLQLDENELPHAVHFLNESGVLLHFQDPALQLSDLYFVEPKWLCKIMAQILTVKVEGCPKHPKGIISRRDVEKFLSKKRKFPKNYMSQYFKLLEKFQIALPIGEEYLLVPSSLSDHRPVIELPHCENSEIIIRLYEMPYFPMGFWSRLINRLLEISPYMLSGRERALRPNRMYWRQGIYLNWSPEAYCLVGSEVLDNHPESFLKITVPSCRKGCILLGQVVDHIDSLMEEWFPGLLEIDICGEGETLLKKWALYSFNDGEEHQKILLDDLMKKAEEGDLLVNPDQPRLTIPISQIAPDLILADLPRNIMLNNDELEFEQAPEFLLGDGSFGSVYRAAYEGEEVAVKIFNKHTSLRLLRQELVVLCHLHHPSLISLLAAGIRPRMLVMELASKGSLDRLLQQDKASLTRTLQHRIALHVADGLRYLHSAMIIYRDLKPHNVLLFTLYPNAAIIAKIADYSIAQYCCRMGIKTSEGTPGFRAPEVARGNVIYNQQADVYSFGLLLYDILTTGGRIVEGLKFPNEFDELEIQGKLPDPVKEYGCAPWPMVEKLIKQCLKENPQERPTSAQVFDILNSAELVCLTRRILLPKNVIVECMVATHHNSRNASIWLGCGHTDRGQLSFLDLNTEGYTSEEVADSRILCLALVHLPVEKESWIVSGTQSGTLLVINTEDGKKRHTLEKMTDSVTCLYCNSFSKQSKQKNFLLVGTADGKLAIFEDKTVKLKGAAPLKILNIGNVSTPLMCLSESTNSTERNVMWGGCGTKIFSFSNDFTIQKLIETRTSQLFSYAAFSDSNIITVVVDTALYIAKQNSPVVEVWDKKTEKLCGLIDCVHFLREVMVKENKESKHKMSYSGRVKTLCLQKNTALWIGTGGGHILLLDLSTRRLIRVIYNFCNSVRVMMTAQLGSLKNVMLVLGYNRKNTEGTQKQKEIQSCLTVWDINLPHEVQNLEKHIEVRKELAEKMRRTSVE
The experiment in a line: LanthaScreen Kinase Activity Assay (TR-FRET), G2019S-LRRK2. The class given is biochemical. The note with it: class symbols; 25 μM ATP, 400 nM LRRKtide, 2.9 nM kinase, 60 min at room temperature. The method, boiled down: as §1

The mark [3] stands for this setting: numeric bound instead of class symbol.

Like-named read-outs stand apart in the source and are kept apart here.

T1 sequence (Q5S007 whole entry): as the sequence (Q5S007 whole entry G2019S) above, with S2019G counted along it

`Cn1ncc2c(F)c(C(=O)Nc3ccc4[nH]nc(-c5cnccc5C(F)(F)F)c4c3)c(F)cc21` [Example 91, 4,6-Difluoro-1-methyl-N-(3-(4-(trifluoromethyl)pyridin-3-yl)-1H-indazol-5-yl)-1H-indazole-5-carboxamide]: the IC50 in test [1] (class symbols) lay within 1000 to 10000 nM; in test [2], 100 to 1000 nM.

`Cn1ncc2c(F)c(C(=O)Nc3ccc4[nH]nc(C#N)c4c3)c(F)cc21` [Example 105, N-(3-Cyano-1H-indazol-5-yl)-4,6-difluoro-1-methyl-1H-indazole-5-carboxamide]: the IC50 in test [1] (class symbols) was 100 to 1000 nM; in test [2], at most 100 nM.

Turning to `Cc1c(C(=O)Nc2ccc3[nH]nc(-c4cnco4)c3c2)ncc2c1cnn2C` [Example 169, 1,4-Dimethyl-N-(3-(oxazol-5-yl)-1H-indazol-5-yl)-1H-pyrazolo[3,4-c]pyridine-5-carboxamide], the IC50 was 100 to 1000 nM in test [1] (class symbols) and at most 100 nM in test [2].

Regarding `Cc1ccncc1-c1n[nH]c2ccc(NC(=O)c3c(F)cc4c(cnn4C)c3F)cc12` [Example 38, 4,6-Difluoro-1-methyl-N-(3-(4-methylpyridin-3-yl)-1H-indazol-5-yl)-1H-indazole-5-carboxamide], the IC50 in test [1] (class symbols) and in test [2] was 1000 to 10000 nM throughout.

In the case of `Cc1cc2c(C)nnn2c(C)c1C(=O)Nc1ccc2[nH]nc(C)c2c1` [Example 65, 3,5,7-Trimethyl-N-(3-methyl-1H-indazol-5-yl)-[1,2,3]triazolo[1,5-a]pyridine-6-carboxamide], the IC50 in test [1] (class symbols) is 1000 to 10000 nM; in test [2] it was 100 to 1000 nM.

As for `Cn1ncc2c(F)c(C(=O)Nc3ccc4[nH]nc(C(F)(F)F)c4c3)c(F)cc21` [Example 115, 4,6-Difluoro-1-methyl-N-(3-(trifluoromethyl)-1H-indazol-5-yl)-1H-indazole-5-carboxamide], the IC50 was 100 to 1000 nM in test [1] (class symbols) and at most 100 nM in test [2].

Take `Cc1cc2c(cnn2C)cc1C(=O)Nc1ccc2[nH]nc(-c3ccoc3)c2c1` [Example 158, N-(3-(Furan-3-yl)-1H-indazol-5-yl)-1,6-dimethyl-1H-indazole-5-carboxamide]: the IC50 in test [1] (class symbols) and in test [2] was at most 100 nM in each case.

With `O=C(Nc1ccc2[nH]nc(-c3ccoc3)c2c1)c1nc2cnccc2s1` [Example 170, N-(3-(Furan-3-yl)-1H-indazol-5-yl)thiazolo[4,5-c]pyridine-2-carboxamide], the concentration for half-maximal inhibition (IC50) is 100 to 1000 nM in test [1] (class symbols) and at most 100 nM in test [2].

Regarding `Cn1cc2c(n1)CCC(C(=O)Nc1ccc3[nH]nc(-c4ccoc4)c3c1)C2` (single isomer, unassigned) [Example 161d], the IC50 in test [1] (class symbols) was 100 to 1000 nM; in test [2], at most 100 nM.

With `Cc1c(C(=O)Nc2ccc3[nH]nc(-c4ccoc4)c3c2)cnc2cncn12` [Example 113, N-(3-(Furan-3-yl)-1H-indazol-5-yl)-4-methylimidazo[1,5-a]pyrimidine-3-carboxamide], the IC50 in test [1] (class symbols) and in test [2] was at most 100 nM in each case.

As to `Cn1nccc1-c1n[nH]c2ccc(NC(=O)c3c(F)cc4c(cnn4C)c3F)cc12` [Example 96, 4,6-Difluoro-1-methyl-N-(3-(1-methyl-1H-pyrazol-5-yl)-1H-indazol-5-yl)-1H-indazole-5-carboxamide], the figures for the IC50 in test [1] (class symbols) and in test [2] were 100 to 1000 nM and at most 100 nM, respectively.

Regarding `Cn1ncc2c(F)c(C(=O)Nc3cc4c(-c5ccoc5)n[nH]c4cc3F)c(F)cc21` [Example 144, 4,6-Difluoro-N-(6-fluoro-3-(furan-3-yl)-1H-indazol-5-yl)-1-methyl-1H-indazole-5-carboxamide], the half-maximal inhibitory concentration (IC50) in test [1] (class symbols) and in test [2] was at most 100 nM in each case.

On to `O=C(Nc1ccc2[nH]nc(-c3ccoc3)c2c1)c1ccn2ccnc2c1` [Example 118, N-(3-(Furan-3-yl)-1H-indazol-5-yl)imidazo[1,2-a]pyridine-7-carboxamide], for which the IC50 in test [1] (class symbols) and in test [2] was 100 to 1000 nM each time.

Turning to `O=C(Nc1ccc2[nH]nc(-c3ccoc3)c2c1)c1ccn2nccc2c1` [Example 117, N-(3-(Furan-3-yl)-1H-indazol-5-yl)pyrazolo[1,5-a]pyridine-5-carboxamide], the results for the IC50 in test [1] (class symbols) and in test [2] were 100 to 1000 nM and at most 100 nM, respectively.

For the compound `Cn1ncc2c(F)c(C(=O)Nc3ccc4[nH]nc(-c5ccc(N6CCOCC6)cc5)c4c3)c(F)cc21` [Example 94, 4,6-Difluoro-1-methyl-N-(3-(4-morpholinophenyl)-1H-indazol-5-yl)-1H-indazole-5-carboxamide], the IC50 in test [1] (class symbols) and in test [2] was at most 100 nM each time.

Consider `Cc1cc2[nH]cnc2cc1C(=O)Nc1ccc2[nH]nc(-c3ccccc3)c2c1` [Example 19, 6-Methyl-N-(3-phenyl-1H-indazol-5-yl)-1H-benzo[d]imidazole-5-carboxamide], for which the IC50 in test [1] (class symbols) is 100 to 1000 nM; in test [2], at most 100 nM.

`Cc1cc2cnnn2c(C)c1C(=O)Nc1ccc2[nH]nc(Br)c2c1` [Example 45, N-(3-Bromo-1H-indazol-5-yl)-5,7-dimethyl-[1,2,3]triazolo[1,5-a]pyridine-6-carboxamide]: the IC50 in test [1] (class symbols) is 100 to 1000 nM; in test [2], at most 100 nM.

For the compound `Cc1cc2c(cnn2C)nc1C(=O)Nc1ccc2[nH]nc(-c3cnco3)c2c1` [Example 160, 1,6-Dimethyl-N-(3-(oxazol-5-yl)-1H-indazol-5-yl)-1H-pyrazolo[4,3-b]pyridine-5-carboxamide], the IC50 in test [1] (class symbols) and in test [2] was at most 100 nM throughout.

With `Cn1ncc2cc(C(=O)Nc3ccc4[nH]nc(-c5ccccc5)c4c3)ccc21` [Example 107, 1-Methyl-N-(3-phenyl-1H-indazol-5-yl)-1H-indazole-5-carboxamide], the IC50 in test [1] (class symbols) was in the range of 1000 to 10000 nM; in test [2], 100 to 1000 nM.

On to `Cn1ncc2nc(C(=O)Nc3ccc4[nH]nc(-c5cnco5)c4c3)ccc21` [Example 165, 1-Methyl-N-(3-(oxazol-5-yl)-1H-indazol-5-yl)-1H-pyrazolo[4,3-b]pyridine-5-carboxamide], for which the results for the IC50 in test [1] (class symbols) and in test [2] were 100 to 1000 nM and at most 100 nM, respectively.

With `O=C(Nc1ccc2[nH]nc(-c3ccoc3)c2c1)c1ccc2ncsc2c1` [Example 123, N-(3-(Furan-3-yl)-1H-indazol-5-yl)benzo[d]thiazole-6-carboxamide], the IC50 in test [1] (class symbols) was 100 to 1000 nM; in test [2], at most 100 nM.

Consider `Cc1cc2cnnn2cc1C(=O)Nc1ccc2[nH]nc(-c3ccccc3)c2c1` [Example 43, 5-Methyl-N-(3-phenyl-1H-indazol-5-yl)-[1,2,3]triazolo[1,5-a]pyridine-6-carboxamide], for which the IC50 in test [1] (class symbols) and in test [2] was at most 100 nM in each case.

For the compound `Cc1cccc(-c2n[nH]c3ccc(NC(=O)c4c(F)cc5c(cnn5C)c4F)cc23)c1` [Example 76, 4,6-Difluoro-1-methyl-N-(3-(m-tolyl)-1H-indazol-5-yl)-1H-indazole-5-carboxamide], the IC50 in test [1] (class symbols) and in test [2] was at most 100 nM each time.

Take `Cc1nc2cncn2c(C)c1C(=O)Nc1ccc2[nH]nc(-c3ccoc3)c2c1` [Example 112, N-(3-(Furan-3-yl)-1H-indazol-5-yl)-2,4-dimethylimidazo[1,5-a]pyrimidine-3-carboxamide]: the IC50 in test [1] (class symbols) is 100 to 1000 nM; in test [2], at most 100 nM.

On to `CN(C)c1ccc(-c2n[nH]c3ccc(NC(=O)c4c(F)cc5c(cnn5C)c4F)cc23)cc1` [Example 87, N-(3-(4-(Dimethylamino)phenyl)-1H-indazol-5-yl)-4,6-difluoro-1-methyl-1H-indazole-5-carboxamide], for which the IC50 in test [1] (class symbols) and in test [2] was at most 100 nM in each case.

In the case of `Cn1cc2nc(C(=O)Nc3ccc4[nH]nc(-c5cnco5)c4c3)ccc2n1` [Example 166, 2-Methyl-N-(3-(oxazol-5-yl)-1H-indazol-5-yl)-2H-pyrazolo[4,3-b]pyridine-5-carboxamide], the IC50 is 100 to 1000 nM in test [1] (class symbols) and at most 100 nM in test [2].

As for `Cc1n[nH]c2ccc(NC(=O)c3cc4nn[nH]c4cc3C(F)(F)F)cc12` [Example 10, N-(3-Methyl-1H-indazol-5-yl)-6-(trifluoromethyl)-1H-benzo[d][1,2,3]triazole-5-carboxamide], the IC50 in test [1] (setting [3]) was above 10000 nM; in test [2] it was 1000 to 10000 nM.

As for `Cc1nn2ccncc2c1C(=O)Nc1ccc2[nH]nc(-c3ccoc3)c2c1` [Example 164, N-(3-(furan-3-yl)-1H-indazol-5-yl)-2-methylpyrazolo[1,5-a]pyrazine-3-carboxamide], the IC50 in test [1] (class symbols) and in test [2] was 100 to 1000 nM in each case.

Turning to `Cc1n[nH]c2ccc(NC(=O)c3ccc4[nH]nnc4c3C#N)cc12` [Example 14, 4-Cyano-N-(3-methyl-1H-indazol-5-yl)-1H-benzo[d][1,2,3]triazole-5-carboxamide], the values for the IC50 in test [1] (setting [3]) and in test [2] were above 10000 nM and 1000 to 10000 nM, respectively.

Turning to `Cn1ncc2c(F)c(C(=O)Nc3ccc4[nH]nc(-c5cncc(N6CCOCC6)c5)c4c3)c(F)cc21` [Example 98, 4,6-Difluoro-1-methyl-N-(3-(5-morpholinopyridin-3-yl)-1H-indazol-5-yl)-1H-indazole-5-carboxamide], the IC50 in test [1] (class symbols) and in test [2] was at most 100 nM throughout.

On to `Cc1cc2[nH]ncc2cc1C(=O)Nc1ccc2[nH]nc(-c3ccccc3)c2c1` [Example 21, 6-Methyl-N-(3-phenyl-1H-indazol-5-yl)-1H-indazole-5-carboxamide], for which the IC50 in test [1] (class symbols) and in test [2] was at most 100 nM throughout.

Consider `Cc1cn2cnnc2c(C)c1C(=O)Nc1ccc2[nH]nc(-c3ccccc3)c2c1` [Example 57, 6,8-Dimethyl-N-(3-phenyl-1H-indazol-5-yl)-[1,2,4]triazolo[4,3-a]pyridine-7-carboxamide], for which the IC50 in test [1] (class symbols) and in test [2] was at most 100 nM each time.

Usually IC50 stands for the concentration that gives 50% inhibition.
